Laboratory results reported in ChEMBL document CHEMBL1144596, “Synthesis of O-prenylated and O-geranylated derivatives of 5-benzylidene2,4-thiazolidinediones and evaluation of their free radical scavenging activity as well as effect on some phase II antioxidant/detoxifying enzymes” (Bioorg Med Chem Lett, 2007).
Values belong to the compound of their own block, whether it stands above or below them.

Tests used:
[1] = Inhibition of DPPH radical scavenging activity; assay type: functional
Mus musculus [2] = species: Mus musculus; experiment: Stimulation of GSH level per protein in Swiss Albino mouse liver; assay type: functional
Mus musculus [3] = experiment: Hepatoprotecting activity in Swiss Albino mouse liver assessed as urea level at 3 mg/kg, po for 20 days
Mus musculus [4] = species: Mus musculus; experiment: Stimulation of CAT level per protein in Swiss Albino mouse liver; assay type: functional
Mus musculus [5] = experiment: Hepatoprotecting activity in Swiss Albino mouse liver assessed as ALT level at 3 mg/kg, po for 20 days; assay type: functional
Mus musculus [6] = species: Mus musculus; experiment: Stimulation of SOD level per protein in Swiss Albino mouse liver; assay type: functional
Mus musculus [7] = species: Mus musculus; experiment: Stimulation of GST level in Swiss Albino mouse liver; assay type: functional
Mus musculus [8] = species: Mus musculus; experiment: Effect on lipid-peroxidation level per protein in Swiss Albino mouse liver; assay type: functional, organism-based
Mus musculus [9] = experiment: Hepatoprotecting activity in Swiss Albino mouse liver assessed as […] level at 3 mg/kg, po for 20 days; assay type: functional

SMILES: COc1cc(/C=C2/SC(=O)NC2=O)ccc1OC/C=C(/C)CCC=C(C)C
- IC50 [1]: 17.6 µM

SMILES: O=C1NC(=O)/C(=C\c2ccccc2O)S1
- IC50 [1]: 23.5 µM

SMILES: CC(C)=CCC/C(C)=C\COc1ccc(/C=C2/SC(=O)NC2=O)cc1
- Activity (Mus musculus [2]): 245.32 nmol/mg
- Urea level (Mus musculus [3]): 14.69 mg/dL
- IC50 [1]: 9.8 µM
- Activity (Mus musculus [4]): 22.32 U/mg
- Activity (Mus musculus [5]): 6.32 IU/L
- Activity (Mus musculus [6]): 70.15 U/mg
- Activity (Mus musculus [7]): 160.33 nmol/mg/min
- Activity (Mus musculus [8]): 0.148 nmol/mg
- Activity (Mus musculus [9]): 32.88 IU/L

SMILES: COc1cc(/C=C2/SC(=O)NC2=O)cc(OC)c1OC/C=C(/C)CCC=C(C)C
- IC50 [1]: 32.1 µM

SMILES: COc1cc(/C=C2/SC(=O)NC2=O)ccc1OCC=C(C)C
- IC50 [1]: 17.9 µM

SMILES: CC(C)=CCOc1ccc(/C=C2/SC(=O)NC2=O)cc1
- IC50 [1]: > 50 µM

SMILES: Cc1c(C)c2c(c(C)c1O)CC[C@@](C)(CCC[C@H](C)CCC[C@H](C)CCCC(C)C)O2 [ALPHA-TOCOPHEROL]
- IC50 [1]: 2.3 µM

The remaining compounds from weak to strong by IC50 [1], led by results:

- IC50 [1]: 43.3 µM
SMILES: CC(C)=CCOc1ccccc1/C=C1/SC(=O)NC1=O

- IC50 [1]: 12 µM
SMILES: O=C1NC(=O)/C(=C\c2ccc(O)cc2)S1

- IC50 [1]: 12 µM
SMILES: CC(C)=CCC/C(C)=C/COc1ccccc1/C=C1/SC(=O)NC1=O

- IC50 [1]: 4.08 µM
SMILES: COc1cc(/C=C2/SC(=O)NC2=O)cc(OC)c1OCC=C(C)C
- Activity (Mus musculus [2]): 238.22 nmol/mg
- Urea level (Mus musculus [3]): 16.53 mg/dL
- Activity (Mus musculus [4]): 23.97 U/mg
- Activity (Mus musculus [5]): 7.3 IU/L
- Activity (Mus musculus [6]): 67.45 U/mg
- Activity (Mus musculus [7]): 140.54 nmol/mg/min
- Activity (Mus musculus [8]): 0.158 nmol/mg
- Activity (Mus musculus [9]): 37.99 IU/L

- IC50 [1]: 2.85 µM
SMILES: COc1cc(/C=C2/SC(=O)NC2=O)cc(OC)c1O

- IC50 [1]: 2.49 µM
SMILES: COc1cc(/C=C2/SC(=O)NC2=O)ccc1O
- Activity (Mus musculus [2]): 184.09 nmol/mg
- Urea level (Mus musculus [3]): 13.83 mg/dL
- Activity (Mus musculus [4]): 16.85 U/mg
- Activity (Mus musculus [5]): 4.8 IU/L
- Activity (Mus musculus [6]): 65.45 U/mg
- Activity (Mus musculus [7]): 220.8 nmol/mg/min
- Activity (Mus musculus [8]): 0.143 nmol/mg
- Activity (Mus musculus [9]): 38.1 IU/L
